Earlier results in paper PMC9516332 (Frontiers in Oncology, 2022).
Read-outs that look alike come from different tables or passages of the source.

Assays:
[1] = target: panel of 255 wild-type kinases (Homo sapiens, UniProt Q05397); conditions: kinase FAK, 1 µmol/L single concentration, cited from earlier work
[2] = target: T1, panel of 255 wild-type kinases (Homo sapiens, UniProt Q02156); conditions: kinase PKCε, 1 µmol/L single concentration, cited from earlier work
T1 sequence (Q02156 1-737): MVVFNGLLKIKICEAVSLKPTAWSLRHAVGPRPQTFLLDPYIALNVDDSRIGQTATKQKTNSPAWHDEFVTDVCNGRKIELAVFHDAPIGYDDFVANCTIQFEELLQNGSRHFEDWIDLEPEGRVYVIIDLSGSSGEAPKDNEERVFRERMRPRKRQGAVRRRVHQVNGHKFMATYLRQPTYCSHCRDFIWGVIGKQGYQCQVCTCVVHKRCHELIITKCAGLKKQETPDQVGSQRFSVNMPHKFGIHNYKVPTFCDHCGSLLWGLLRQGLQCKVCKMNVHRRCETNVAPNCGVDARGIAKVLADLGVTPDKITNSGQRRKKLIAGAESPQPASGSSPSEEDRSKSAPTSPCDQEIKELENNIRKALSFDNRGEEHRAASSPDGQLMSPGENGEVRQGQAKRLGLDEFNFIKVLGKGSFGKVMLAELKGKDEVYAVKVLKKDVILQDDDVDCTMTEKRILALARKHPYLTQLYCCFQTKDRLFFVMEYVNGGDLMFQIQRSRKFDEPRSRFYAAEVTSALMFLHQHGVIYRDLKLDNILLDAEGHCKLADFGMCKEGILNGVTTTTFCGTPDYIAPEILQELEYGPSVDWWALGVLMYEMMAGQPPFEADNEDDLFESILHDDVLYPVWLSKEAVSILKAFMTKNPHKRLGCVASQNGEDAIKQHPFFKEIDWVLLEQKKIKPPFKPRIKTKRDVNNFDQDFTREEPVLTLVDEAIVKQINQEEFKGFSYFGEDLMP

[3] = target: panel of 255 wild-type kinases (Homo sapiens, UniProt P48729); conditions: kinase CK1α, 1 µmol/L single concentration, cited from earlier work
[4] = target: T2, panel of 255 wild-type kinases (Homo sapiens, UniProt O00141); conditions: kinase SGK, 1 µmol/L single concentration, cited from earlier work
T2 sequence (O00141 1-431): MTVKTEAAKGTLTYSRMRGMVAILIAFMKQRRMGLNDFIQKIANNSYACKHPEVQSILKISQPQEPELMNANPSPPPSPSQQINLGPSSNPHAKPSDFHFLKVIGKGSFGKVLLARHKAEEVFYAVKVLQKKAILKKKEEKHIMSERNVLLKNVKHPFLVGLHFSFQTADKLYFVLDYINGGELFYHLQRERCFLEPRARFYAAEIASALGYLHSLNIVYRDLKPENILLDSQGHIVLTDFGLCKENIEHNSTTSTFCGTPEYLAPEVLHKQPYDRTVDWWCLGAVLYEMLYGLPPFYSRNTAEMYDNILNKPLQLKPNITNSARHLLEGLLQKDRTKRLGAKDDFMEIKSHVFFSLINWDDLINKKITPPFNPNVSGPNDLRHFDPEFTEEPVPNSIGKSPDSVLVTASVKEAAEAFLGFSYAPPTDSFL

[5] = target: T3, panel of 255 wild-type kinases (Homo sapiens, UniProt Q9UQB9); conditions: AurC kinase assay, 1 µmol/L single concentration, cited from earlier work
T3 sequence (Q9UQB9 1-309): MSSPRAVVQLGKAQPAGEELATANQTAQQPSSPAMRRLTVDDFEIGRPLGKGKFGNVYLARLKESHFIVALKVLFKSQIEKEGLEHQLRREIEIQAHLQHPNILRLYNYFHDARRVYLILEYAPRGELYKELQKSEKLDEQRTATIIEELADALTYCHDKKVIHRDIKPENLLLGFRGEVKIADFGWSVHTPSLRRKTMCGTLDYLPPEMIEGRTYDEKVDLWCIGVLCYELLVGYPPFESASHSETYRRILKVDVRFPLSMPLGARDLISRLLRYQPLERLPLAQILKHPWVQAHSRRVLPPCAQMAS

[6] = target: panel of 255 wild-type kinases (Homo sapiens, UniProt P48730); conditions: cited from earlier work
[7] = target: panel of 255 wild-type kinases (Homo sapiens, UniProt P54764); conditions: kinase EPHA4, 1 µmol/L single concentration, cited from earlier work
[8] = target: panel of 255 wild-type kinases (Homo sapiens, UniProt P06213); conditions: kinase INSR, 1 µmol/L single concentration, cited from earlier work
[9] = target: panel of 255 wild-type kinases (Homo sapiens, UniProt Q15759); conditions: p38β, 1 µmol/L single concentration, cited from earlier work
[10] = target: panel of 255 wild-type kinases (Homo sapiens, UniProt Q9P1W9); conditions: kinase PIM2, 1 µmol/L single concentration, cited from earlier work
[11] = target: panel of 255 wild-type kinases (Homo sapiens, UniProt Q9BUB5); conditions: MNK1, 1 µmol/L single concentration, cited from earlier work
[12] = target: panel of 255 wild-type kinases (Homo sapiens, UniProt Q9H2G2); conditions: kinase SLK, 1 µmol/L single concentration, cited from earlier work
[13] = target: panel of 255 wild-type kinases (Homo sapiens, UniProt Q5VT25); conditions: MRCKα, 1 µmol/L single concentration, cited from earlier work
[14] = ref DOI: 10.1158/1535-7163.MCT-18-0877
[15] = kinase CK1δ, 1 µmol/L single concentration, ref DOI: 10.1158/1535-7163.MCT-18-0877
[16] = ref DOI: 10.1371/journal.pone.0092146
[17] = kinase CK1δ, 1 µmol/L single concentration, ref DOI: 10.1371/journal.pone.0092146

O=C(c1ccc(F)c(F)c1Nc1ccc(I)cc1F)N1CC(O)([C@@H]2CCCCN2)C1 [cobimetinib]
%-inhibition at 1 µmol/L, FAK [1, 14]: -4% | %-inhibition at 1 µmol/L, PKCε [2, 14]: 4.22% | %-inhibition at 1 µmol/L, CK1α [3, 14]: 2% | %-inhibition at 1 µmol/L, SGK [4, 14]: -19% | %-inhibition AurC [5, 14]: -2.68% | %-inhibition at 1 µmol/L, CK1δ [6, 15]: -2.63% | %-inhibition at 1 µmol/L, EPHA4 [7, 14]: 3% | %-inhibition at 1 µmol/L, INSR [8, 14]: 2.48% | %-inhibition, p38β [9, 14]: 4% | %-inhibition at 1 µmol/L, PIM2 [10, 14]: -4.45% | %-inhibition, MNK1 [11, 14]: 14% | %-inhibition at 1 µmol/L, SLK [12, 14]: 6% | %-inhibition, MRCKα [13, 14]: -7%

CO[C@@H]1[C@H](N(C)C(=O)c2ccccc2)C[C@H]2O[C@]1(C)n1c3ccccc3c3c4c(c5c6ccccc6n2c5c31)C(=O)NC4 [midostaurin]
%-inhibition at 1 µmol/L, FAK [1, 14]: 28% | %-inhibition at 1 µmol/L, PKCε [2, 14]: 84% | %-inhibition at 1 µmol/L, CK1α [3, 14]: 3.51% | %-inhibition at 1 µmol/L, SGK [4, 14]: 31% | %-inhibition AurC [5, 14]: 100% | %-inhibition at 1 µmol/L, CK1δ [6]: -2% | %-inhibition at 1 µmol/L, EPHA4 [7, 14]: 2.15% | %-inhibition at 1 µmol/L, INSR [8, 14]: 35% | %-inhibition, p38β [9, 14]: 1.19% | %-inhibition at 1 µmol/L, PIM2 [10, 14]: -9% | %-inhibition, MNK1 [11, 14]: 50% | %-inhibition at 1 µmol/L, SLK [12, 14]: 85% | %-inhibition, MRCKα [13, 14]: 14%

C=CC(=O)N1CCC[C@@H](n2nc(-c3ccc(Oc4ccccc4)cc3)c3c(N)ncnc32)C1 [ibrutinib]
%-inhibition at 1 µmol/L, FAK [1, 14]: 5% | %-inhibition at 1 µmol/L, PKCε [2, 14]: 8% | %-inhibition at 1 µmol/L, CK1α [3, 14]: -2% | %-inhibition at 1 µmol/L, SGK [4, 14]: -21% | %-inhibition AurC [5, 14]: 7% | %-inhibition at 1 µmol/L, CK1δ [6, 15]: 7.46% | %-inhibition at 1 µmol/L, EPHA4 [7, 14]: 13% | %-inhibition at 1 µmol/L, INSR [8, 14]: 9.51% | %-inhibition, p38β [9, 14]: 9% | %-inhibition at 1 µmol/L, PIM2 [10, 14]: -5% | %-inhibition, MNK1 [11, 14]: 15% | %-inhibition at 1 µmol/L, SLK [12, 14]: 12% | %-inhibition, MRCKα [13, 14]: -0.621%

C[C@@H](Oc1cc(-c2cnn(C3CCNCC3)c2)cnc1N)c1c(Cl)ccc(F)c1Cl [crizotinib]
%-inhibition at 1 µmol/L, FAK [1, 16]: 90% | %-inhibition at 1 µmol/L, PKCε [2, 16]: -7% | %-inhibition at 1 µmol/L, CK1α [3, 16]: -1.36% | %-inhibition at 1 µmol/L, SGK [4, 16]: 1.46% | %-inhibition AurC [5, 16]: 87% | %-inhibition at 1 µmol/L, CK1δ [6, 17]: 9% | %-inhibition at 1 µmol/L, EPHA4 [7, 16]: 58% | %-inhibition at 1 µmol/L, INSR [8, 16]: 84% | %-inhibition, p38β [9, 16]: 0.299% | %-inhibition at 1 µmol/L, PIM2 [10, 16]: -5.28% | %-inhibition, MNK1 [11, 16]: 0% | %-inhibition at 1 µmol/L, SLK [12, 16]: 100% | %-inhibition, MRCKα [13, 16]: -8%

Cc1cc(Nc2ncc(Cl)c(Nc3ccccc3S(=O)(=O)C(C)C)n2)c(OC(C)C)cc1C1CCNCC1 [ceritinib]
%-inhibition at 1 µmol/L, FAK [1, 14]: 100% | %-inhibition at 1 µmol/L, PKCε [2, 14]: 11% | %-inhibition at 1 µmol/L, CK1α [3, 14]: 7% | %-inhibition at 1 µmol/L, SGK [4, 14]: 2% | %-inhibition AurC [5, 14]: 3.47% | %-inhibition at 1 µmol/L, CK1δ [6, 15]: -6% | %-inhibition at 1 µmol/L, EPHA4 [7, 14]: 1.33% | %-inhibition at 1 µmol/L, INSR [8, 14]: 102% | %-inhibition, p38β [9, 14]: 2.35% | %-inhibition at 1 µmol/L, PIM2 [10, 14]: -8% | %-inhibition, MNK1 [11, 14]: -1.9% | %-inhibition at 1 µmol/L, SLK [12, 14]: 64% | %-inhibition, MRCKα [13, 14]: 1.61%

CC(C)(C)c1nc(-c2cccc(NS(=O)(=O)c3c(F)cccc3F)c2F)c(-c2ccnc(N)n2)s1 [dabrafenib]
%-inhibition at 1 µmol/L, FAK [1, 16]: 13% | %-inhibition at 1 µmol/L, PKCε [2, 16]: 5% | %-inhibition at 1 µmol/L, CK1α [3, 16]: 13% | %-inhibition at 1 µmol/L, SGK [4, 16]: 4% | %-inhibition AurC [5, 16]: 23% | %-inhibition at 1 µmol/L, CK1δ [6, 17]: 8.51% | %-inhibition at 1 µmol/L, EPHA4 [7, 16]: 12% | %-inhibition at 1 µmol/L, INSR [8, 16]: 7.51% | %-inhibition, p38β [9, 16]: 5.3% | %-inhibition at 1 µmol/L, PIM2 [10, 16]: 0.238% | %-inhibition, MNK1 [11, 16]: 20% | %-inhibition at 1 µmol/L, SLK [12, 16]: 12% | %-inhibition, MRCKα [13, 16]: -1.84%

C=CC(=O)Nc1cc(Nc2nccc(-c3cn(C)c4ccccc34)n2)c(OC)cc1N(C)CCN(C)C [osimertinib]
%-inhibition at 1 µmol/L, FAK [1, 14]: 81% | %-inhibition at 1 µmol/L, PKCε [2, 14]: -12% | %-inhibition at 1 µmol/L, CK1α [3, 14]: 4.46% | %-inhibition at 1 µmol/L, SGK [4, 14]: -11% | %-inhibition AurC [5, 14]: 2.33% | %-inhibition at 1 µmol/L, CK1δ [6, 15]: 7.49% | %-inhibition at 1 µmol/L, EPHA4 [7, 14]: 3.54% | %-inhibition at 1 µmol/L, INSR [8, 14]: 86% | %-inhibition, p38β [9, 14]: 4.56% | %-inhibition at 1 µmol/L, PIM2 [10, 14]: -5.45% | %-inhibition, MNK1 [11, 14]: 99% | %-inhibition at 1 µmol/L, SLK [12, 14]: 17% | %-inhibition, MRCKα [13, 14]: -4.55%
